Like-named read-outs stand apart in the source and are kept apart here.
Legend:
[1] = test system: histone H3 phosphorylation on Ser10 (pHH3), surrogate marker of Aurora B kinase activity; assay: Tumour phospho-histone H3 (pHH3) biomarker in SW620 tumours by flow cytometry; assay type: in vivo, rat; settings: 24 hrs post single dose 25 mg/kg IV
Procedure: This experiment compares the effect of Formulation E, F1 and F2 on a phospho-histone H3 phosphorylation (pHH3) in SW620 tumours. AZD1152 was included as a positive control. The activity was measured as an inhibition of histone H3 phosphorylation on Ser^10 (pHH3 as a sensitive, highly dynamic surrogate marker of Aurora B kinase activity). Average level of pHH3 positivity [%] was calculated for the cells in G2/M phase of the cell cycle for each treatment group at 24 hrs and 96 hrs post 1st dose and compared to the pHH3 level observed for the cells in G2/M cell cycle phase that were extracted from the tumours treated with BIND Placebo (referred here as 100%). Statistical significance was calculated using Student t-test assuming unequal variances (*p<0.05, **p<0.01, ***p<001, n.s. P>0.05). […]
The activity was measured as an inhibition of histone H3 phosphorylation on Ser10 (pHH3 as a sensitive, highly dynamic surrogate marker of Aurora B kinase activity). Average level of pHH3 positivity [%] was calculated for the cells in G2/M phase of the cell cycle for each treatment group at 24, 48, 72, 96 and 120 hrs post 1 dose and compared to the pHH3 level observed for the cells in G2/M cell cycle phase that were extracted from the tumours treated with BIND Placebo (referred here as 100%). […]

bone marrow [2] = assay: Bone marrow hypocellularity, pathologist assessment of haematoxylin and eosin sections; assay type: in vivo, rat; settings: 25 mg/kg IV; day 5 and 9; FIG. 13
Procedure: Female nude rats were bred at AstraZeneca, and put into study at a minimum weight of 150 g. Animals were inoculated in the flank with SW620 human tumour cells and dosing started when tumours had reached 0.4-0.9 cm^3. Compounds were dosed intravenously (IV) at 5 ml/kg with either control, AZD1152 or AZD1152 hqpa nanoparticle formulation B or E. AZD1152 was dosed in tris buffer vehicle (days 1-4 IV, each dose at 25 mg/kg) and AZD1152 hqpa nanoparticle formulation was dosed in physiological saline (dosed 25 mg/kg on each of days 1 and 3 IV). At the time points indicated animals were sacrificed and tumour, blood and femur/bone marrow samples taken. Effects of the treatments on the tumour and the bone marrow were scored by a pathologist assessment of haematoxylin and eosin stained sections derived from the femur.
(§1) Rats were injected IV with BIND Placebo (0 mg/kg), or AZD1152/AZD1152 hqpa Formulation E/F1/F2 at 25 mg/kg at the times indicated and sacrificed at the times indicated.
Bone marrows samples were extracted from each animal. Firstly samples of bone marrow were processed for pathological assessment. […] Bone marrow integrity was scored by the pathologist. […]
Bone marrow samples were extracted from each animal and processed for pathological assessment. […] Bone marrow integrity was scored by the pathologist. […]

[3] = test system: SW620 human tumour xenograft; assay: SW620 anti-tumour study in male nude mouse; assay type: in vivo
Procedure: Male nude mice were bred at AstraZeneca. Animals were inoculated in the flank with SW620 human tumour cells, and then randomized onto study when tumours reached approximately 0.25 cm^3. AZD1152 was dosed in tris buffer vehicle at the concentration indicated. AZD1152 hqpa nanoparticle formulation E was dosed in physiological saline. Previous pre-clinical work and methodologies with AZD1152 are published in Wilkinson et al, Clinical Cancer Research 2007 (13) 3682. […] In this study AZD1152 was dosed on day 0-3 at 25 mg/kg (total 100 mg/kg). Formulation E was dosed at a variety of different schedules as described above.

bone marrow [4] = assay: Bone marrow cellularity by FACS (total nucleated cells); assay type: in vivo, rat; settings: 25 mg/kg IV; FIG. 14
Procedure: as §1
Secondly bone marrow flushes taken to examine bone marrow cellularity by FACs. At termination bone marrow from each Femur was taken into 50% FBS and 50% PBS on ice. Cells were pelleted by centrifugation at 4° C. and re-suspended in PBS. Cells were pelleted again at 4° C. and re-suspended in PBS. 50 μl of LDS-751 (0.5 mg/ml in methanol) was added and cells vortexed. Finally the cells were filtered through a 50 micron filter into a FACS tube. Samples were analysed on a FACS Canto (Beckton Dickinson). A bone marrow hypocellularity is represented as a total of nucleated cells relative to untreated controls. The percentage cellularity of each bone marrow sample in each individual animal are shown. The dotted line represents the lowest percentage total nucleated cell value seen in animals receiving only vehicle (empty nanoparticle).

[5] = reported (SciFinder); cited from earlier work
[6] = reported (SciFinder); cited from earlier work; remark: listed apart in the source
[7] = Acid dissociation constant (pKa); assay type: physicochemical

CCN(CCCOc1ccc2c(Nc3cc(CC(=O)Nc4cccc(F)c4)n[nH]3)ncnc2c1)CCOP(=O)(O)O [AZD1152, 2-(ethyl(3-((4-((5-(2-((3-fluorophenyl)amino)-2-oxoethyl)-1H-pyrazol-3-yl)amino)quinazolin-7-yl)oxy)propyl)amino)ethyl dihydrogen phosphate]
proportion of pHH3-positive cells within G2/M phase ([1]; FIG. 12): maximally suppressed | proportion of pHH3-positive cells within G2/M phase ([1]; FIG. 15): maximally suppressed | bone marrow hypocellularity score (0-4) (bone marrow [2]): large impact on bone marrow | efficacy of IV 25 mg/kg for 4 days (100 mg/kg total dose) ([3]; SW620 xenograft model in rat and mouse): maximal efficacy | dose at which maximum activity was achieved ([3]; total dose equivalent, SW620): 100 mg/kg | bone marrow cellularity, total nucleated cells relative to untreated controls (bone marrow [4]): large impact on bone marrow

O=C(O)c1cc2ccccc2c(Cc2c(O)c(C(=O)O)cc3ccccc23)c1O [pamoic acid, 4,4′-methylenebis[3-hydroxy-2-naphthoic acid]]
pKa1 [5]: 2.67 | log P [6]: 6.169

CCN(CCO)CCCOc1ccc2c(Nc3cc(CC(=O)Nc4cccc(F)c4)[nH]n3)ncnc2c1 [AZD1152 hqpa, 2-(3-((7-(3-(ethyl(2-hydroxyethyl)amino)propoxy)quinazolin-4-yl)amino)-1H-pyrazol-5-yl)-N-(3-fluorophenyl)acetamide]
pKa1 [7]: 5.7 | pKa2 [7]: 8.46
